Experimental data published in patent EP4635500A1, “THERAPEUTIC AGENT FOR BACTERIAL INFECTION” (Sumitomo Pharma Co., Ltd., priority 2022, dated 2024).
In brackets after ≈: the same amount, converted by molar mass. Like-named read-outs stand apart in the source and are kept apart here.

What was measured:
Format in all cases: cell-based
[1] = tested on: Morganella morganii; experiment: MIC and MBC, broth microdilution (Example 4, Table 3); details: Morganella morganii CDC-57 (NDM-1)
[2] = tested on: Escherichia coli; experiment: MIC, broth microdilution, standard strains and Japanese clinical isolates (Example 5, Table 4)
[3] = tested on: Klebsiella pneumoniae; experiment: as above
[4] = tested on: Enterobacter cloacae; experiment: as above
[5] = tested on: Enterobacter hormaechei; experiment: as above; details: ATCCBAA2082; KUB4001 Enterobacter hormaechei ATCC BAA-2082, KPC-2
[6] = tested on: Providencia rettgeri; experiment: as above; details: ATCCBAA2525; KUB4010 Providencia rettgeri ATCC BAA-2525, OXA-181
[7] = tested on: 53 CRE and CPE strains; experiment: MICrange, MIC50, MIC80, MIC90 for 53 bacterial isolates (Example 5, Table 5); details: 53 bacterial isolates
[8] = tested on: CRE and CPE strains; experiment: MIC, broth microdilution, standard strains and Japanese clinical isolates (Example 5, Table 4 continued; organism of each KUB strain not given)

In the case of CC(C)(O/N=C(\C(=O)N[C@@H]1C(=O)N2C(C(=O)[O-])=C(C[n+]3ccccc3)CS[C@H]12)c1csc(N)n1)C(=O)O [CAZ, ceftazidime], the MBC [1] was greater than 128 mg/L, the MIC [1] was greater than 128 mg/L and the MIC ([2]; ATCCBAA2452, KUB4005 Escherichia coli ATCC BAA-2452, NDM-1) was greater than 32 mg/L. It also gave an MIC ([2]; ATCCBAA2471, KUB4007 Escherichia coli ATCC BAA-2471, NDM-6) greater than 32 mg/L, an MIC ([3]; ATCCBAA1898, KUB3996 Klebsiella pneumoniae ATCC BAA-1898, KPC-2) greater than 32 mg/L and an MIC ([3]; ATCCBAA1899, KUB3997 Klebsiella pneumoniae ATCC BAA-1899, KPC-2) greater than 32 mg/L. For the same compound, the MIC ([3]; ATCCBAA1900, KUB3998 Klebsiella pneumoniae ATCC BAA-1900, KPC-3) was greater than 32 mg/L, the MIC ([3]; ATCCBAA1904, KUB3999 Klebsiella pneumoniae ATCC BAA-1904, KPC-3) was 16 mg/L (≈ 29.3 µM) and the MIC ([3]; ATCCBAA2078, KUB4000 Klebsiella pneumoniae ATCC BAA-2078, KPC-3) was greater than 32 mg/L. For the same compound, the MIC ([3]; ATCCBAA2146, KUB4011 Klebsiella pneumoniae ATCC BAA-2146, NDM-1) was greater than 32 mg/L, the MIC ([3]; ATCCBAA2342, KUB4003 Klebsiella pneumoniae ATCC BAA-2342, KPC-3) was greater than 32 mg/L and the MIC ([3]; ATCCBAA2343, KUB4004 Klebsiella pneumoniae ATCC BAA-2343, KPC-3) was greater than 32 mg/L. It also gave an MIC ([3]; ATCCBAA2472, KUB4008 Klebsiella pneumoniae subsp. Pneumoniae ATCC BAA-2472, NDM-1) greater than 32 mg/L, an MIC ([3]; ATCCBAA2473, KUB4009 Klebsiella pneumoniae ATCC BAA-2473, NDM-1) greater than 32 mg/L and an MIC ([3]; KUB3631 Klebsiella pneumoniae Clinical isolate, IMP-1) greater than 32 mg/L. For the same compound, the MIC ([3]; KUB3633 Klebsiella pneumoniae Clinical isolate, IMP-6) was 32 mg/L (≈ 58.5 µM), the MIC ([3]; KUB3634 Klebsiella pneumoniae Clinical isolate, IMP-6) was 16 mg/L (≈ 29.3 µM) and the MIC ([3]; KUB3635 Klebsiella pneumoniae Clinical isolate, IMP-1) was greater than 32 mg/L. For the same compound, the MIC ([4]; ATCCBAA2341, KUB4002 Enterobacter cloacae ATCC BAA-2341, KPC-3) was greater than 32 mg/L, the MIC ([4]; ATCCBAA2468, KUB4006 Enterobacter cloacae ATCC BAA-2468, NDM-1) was greater than 32 mg/L and the MIC [5] was greater than 32 mg/L. The MIC [6] was greater than 32 mg/L, the MIC50 ([7]; read-out: MIC50) was greater than 32 mg/L and the MIC80 ([7]; read-out: MIC80) was greater than 32 mg/L. For the same compound, the MIC90 ([7]; read-out: MIC90) was greater than 32 mg/L, the MIC ([8]; strain KUB3148, carbapenemase gene KPC-3, read-out: MIC) was greater than 32 mg/L and the MIC ([8]; strain KUB3149, carbapenemase gene NDM-1, read-out: MIC) was greater than 32 mg/L. It also gave an MIC ([8]; strain KUB3150, carbapenemase gene OXA-48, read-out: MIC) of 1 mg/L (≈ 1.83 µM), an MIC ([8]; strain KUB3151, carbapenemase gene IMP-1, read-out: MIC) greater than 32 mg/L and an MIC ([8]; strain KUB3152, carbapenemase gene KPC-2, read-out: MIC) of 32 mg/L (≈ 58.5 µM). The MIC ([8]; strain KUB3153, carbapenemase gene KPC-3, read-out: MIC) was greater than 32 mg/L, the MIC ([8]; strain KUB3154, carbapenemase gene KPC-2, read-out: MIC) was 32 mg/L (≈ 58.5 µM) and the MIC ([8]; strain KUB3158, carbapenemase gene OXA-48) was 0.5 mg/L (≈ 0.915 µM). It also gave an MIC ([8]; strain KUB3169, carbapenemase gene Unidentified) of 8 mg/L (≈ 14.6 µM), an MIC ([8]; strain KUB3170, carbapenemase gene Unidentified) of 8 mg/L (≈ 14.6 µM) and an MIC ([8]; strain KUB3171, carbapenemase gene -) of 8 mg/L (≈ 14.6 µM).
